Measured values as given in ChEMBL document CHEMBL5303573, “Mapping human microbiome drug metabolism by gut bacteria and their genes” (Nature, 2019).

Experiments:
Type in all cases: ADME
Set-up in all cases: dose 2 uM
Settings in all cases: 2 µM
[1] = molecular target: T1, Sialic acid-specific acetylesterase (Bacteroides thetaiotaomicron, UniProt Q8A331); experiment: (§1) The drug is tested on Bacteroides thetaiotaomicron strain: VPI-5482 for biotransformation. The drug concentrations were measured before and after a 12-h incubation by liquid-chromatography-coupled mass spectrometry (LC–MS)
T1 sequence (Q8A331 whole entry): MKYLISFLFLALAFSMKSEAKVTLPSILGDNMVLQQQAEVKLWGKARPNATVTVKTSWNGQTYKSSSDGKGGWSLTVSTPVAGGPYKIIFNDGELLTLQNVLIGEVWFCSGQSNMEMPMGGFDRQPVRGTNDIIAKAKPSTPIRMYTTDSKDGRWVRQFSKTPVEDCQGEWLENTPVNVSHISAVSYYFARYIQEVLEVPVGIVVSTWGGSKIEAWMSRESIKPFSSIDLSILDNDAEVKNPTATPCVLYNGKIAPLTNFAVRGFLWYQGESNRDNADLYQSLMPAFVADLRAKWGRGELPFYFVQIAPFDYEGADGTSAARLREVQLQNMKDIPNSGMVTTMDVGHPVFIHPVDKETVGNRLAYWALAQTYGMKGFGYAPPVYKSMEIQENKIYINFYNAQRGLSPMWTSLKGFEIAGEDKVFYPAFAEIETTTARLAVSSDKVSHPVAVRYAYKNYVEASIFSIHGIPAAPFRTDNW

[2] = molecular target: T2, NADH dehydrogenase/NAD(P)H nitroreductase (Bacteroides thetaiotaomicron, UniProt Q8A8L9); experiment: as §1
T2 sequence (Q8A8L9 whole entry): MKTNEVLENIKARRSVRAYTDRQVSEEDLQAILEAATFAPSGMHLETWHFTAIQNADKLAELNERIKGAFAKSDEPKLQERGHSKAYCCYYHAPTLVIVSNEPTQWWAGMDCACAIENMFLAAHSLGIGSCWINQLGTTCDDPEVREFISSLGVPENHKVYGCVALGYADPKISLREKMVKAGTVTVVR

Xylanase = molecular target: T3, Xylanase (Bacteroides thetaiotaomicron, UniProt Q8A8H5); experiment: as §1
T3 sequence (Q8A8H5 whole entry): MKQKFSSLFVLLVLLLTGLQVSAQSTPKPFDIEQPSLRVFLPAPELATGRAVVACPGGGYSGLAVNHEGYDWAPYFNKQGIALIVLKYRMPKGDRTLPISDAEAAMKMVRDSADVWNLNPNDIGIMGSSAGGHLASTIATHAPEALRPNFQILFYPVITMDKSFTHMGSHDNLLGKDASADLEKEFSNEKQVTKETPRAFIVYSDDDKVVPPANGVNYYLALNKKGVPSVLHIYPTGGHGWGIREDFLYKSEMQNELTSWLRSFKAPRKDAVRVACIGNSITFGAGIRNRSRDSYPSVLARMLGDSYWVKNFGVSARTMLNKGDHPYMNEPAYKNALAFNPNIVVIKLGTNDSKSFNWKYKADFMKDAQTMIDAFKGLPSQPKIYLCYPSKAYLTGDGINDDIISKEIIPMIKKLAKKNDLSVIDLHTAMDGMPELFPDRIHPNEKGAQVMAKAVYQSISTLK

Regulatory protein = molecular target: T4, Regulatory protein (Bacteroides thetaiotaomicron, UniProt Q8A576); experiment: as §1
T4 sequence (Q8A576 whole entry): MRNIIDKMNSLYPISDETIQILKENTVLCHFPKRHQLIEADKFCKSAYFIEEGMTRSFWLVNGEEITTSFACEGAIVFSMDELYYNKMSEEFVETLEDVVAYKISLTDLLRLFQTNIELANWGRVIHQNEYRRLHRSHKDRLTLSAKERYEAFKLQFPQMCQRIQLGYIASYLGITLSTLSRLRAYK

Acylhydrolase = molecular target: T5, Acylhydrolase (Bacteroides thetaiotaomicron, UniProt Q8AA96); experiment: as §1
T5 sequence (Q8AA96 whole entry): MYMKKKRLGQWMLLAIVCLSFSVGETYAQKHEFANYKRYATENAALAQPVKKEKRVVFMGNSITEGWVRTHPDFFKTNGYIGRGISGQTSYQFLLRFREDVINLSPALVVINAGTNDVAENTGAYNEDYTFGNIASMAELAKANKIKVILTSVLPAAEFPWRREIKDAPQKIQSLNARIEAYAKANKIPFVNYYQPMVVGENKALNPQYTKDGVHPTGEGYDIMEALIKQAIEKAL

Acyltransferase = molecular target: T6, Acyltransferase (Bacteroides thetaiotaomicron, UniProt Q8A575); experiment: as §1
T6 sequence (Q8A575 whole entry): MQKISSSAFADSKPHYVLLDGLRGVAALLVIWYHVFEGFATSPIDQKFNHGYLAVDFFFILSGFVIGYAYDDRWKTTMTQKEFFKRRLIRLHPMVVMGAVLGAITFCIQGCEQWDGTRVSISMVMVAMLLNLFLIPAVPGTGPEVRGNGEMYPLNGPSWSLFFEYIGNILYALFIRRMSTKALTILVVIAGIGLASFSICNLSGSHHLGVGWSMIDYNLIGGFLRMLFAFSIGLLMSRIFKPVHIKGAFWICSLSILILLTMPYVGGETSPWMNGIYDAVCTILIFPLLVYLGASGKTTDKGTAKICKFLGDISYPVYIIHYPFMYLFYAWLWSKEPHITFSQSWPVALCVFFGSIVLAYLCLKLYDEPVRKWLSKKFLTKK

Lipoprotein = molecular target: T7, Lipoprotein (Bacteroides thetaiotaomicron, UniProt Q8A343); experiment: as §1
T7 sequence (Q8A343 whole entry): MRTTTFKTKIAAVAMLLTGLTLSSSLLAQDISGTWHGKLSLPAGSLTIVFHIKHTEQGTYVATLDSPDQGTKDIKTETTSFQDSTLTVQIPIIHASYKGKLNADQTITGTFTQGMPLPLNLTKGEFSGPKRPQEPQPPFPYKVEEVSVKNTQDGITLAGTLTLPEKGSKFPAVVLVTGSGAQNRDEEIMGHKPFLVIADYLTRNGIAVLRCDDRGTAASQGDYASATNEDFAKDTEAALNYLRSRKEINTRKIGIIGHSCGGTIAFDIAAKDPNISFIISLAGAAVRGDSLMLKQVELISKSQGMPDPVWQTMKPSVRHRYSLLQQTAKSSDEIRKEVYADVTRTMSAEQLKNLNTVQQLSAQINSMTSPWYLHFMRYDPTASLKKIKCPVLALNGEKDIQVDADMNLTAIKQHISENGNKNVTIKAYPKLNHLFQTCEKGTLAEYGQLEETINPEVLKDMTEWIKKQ

[3] = molecular target: T8, Nitroreductase-like protein (Bacteroides thetaiotaomicron, UniProt Q8AB93); experiment: as §1
T8 sequence (Q8AB93 whole entry): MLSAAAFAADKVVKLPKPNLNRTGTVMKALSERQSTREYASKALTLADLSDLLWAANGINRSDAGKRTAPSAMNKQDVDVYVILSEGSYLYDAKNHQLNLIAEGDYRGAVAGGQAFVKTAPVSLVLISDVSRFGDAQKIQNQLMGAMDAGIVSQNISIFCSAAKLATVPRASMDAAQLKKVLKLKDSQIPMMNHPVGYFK

Bacterial Biotransformation [1]	Bacterial Biotransformation [2]	Bacterial Biotransformation (Xylanase)	Bacterial Biotransformation (Regulatory protein)	Bacterial Biotransformation (Acylhydrolase)	Bacterial Biotransformation (Acyltransferase)	Bacterial Biotransformation (Lipoprotein)	Bacterial Biotransformation [3]	SMILES
Compound metabolized	Compound NOT metabolized	Compound metabolized	Compound metabolized	Compound metabolized	Compound NOT metabolized	Compound NOT metabolized	Compound NOT metabolized	CC(=O)Nc1ccc(OC(C)=O)cc1 [DIACETAMATE]
Compound NOT metabolized	Compound metabolized	Compound NOT metabolized	Compound NOT metabolized	Compound NOT metabolized	Compound NOT metabolized	Compound NOT metabolized	Compound metabolized	CCN(CC)C(=O)/C(C#N)=C/c1cc(O)c(O)c([N+](=O)[O-])c1 [ENTACAPONE]
Compound NOT metabolized		Compound metabolized	Compound NOT metabolized	Compound NOT metabolized	Compound NOT metabolized		Compound metabolized	CCOC(=O)C1=C(C)NC(C)=C(C(=O)OC)C1c1cccc([N+](=O)[O-])c1 (centres undefined) [NITRENDIPINE]
Compound NOT metabolized	Compound NOT metabolized		Compound NOT metabolized		Compound NOT metabolized	Compound NOT metabolized	Compound metabolized	O=C(O)c1cc(/N=N/c2ccc(S(=O)(=O)Nc3ccccn3)cc2)ccc1O [SULFASALAZINE]
Compound NOT metabolized	Compound metabolized	Compound NOT metabolized	Compound NOT metabolized	Compound NOT metabolized	Compound NOT metabolized	Compound NOT metabolized	Compound metabolized	CCS(=O)(=O)CCn1c([N+](=O)[O-])cnc1C [TINIDAZOLE]

Continued, compound first:

SMILES	Bacterial Biotransformation [1]	Bacterial Biotransformation [2]	Bacterial Biotransformation (Xylanase)	Bacterial Biotransformation (Regulatory protein)	Bacterial Biotransformation (Acylhydrolase)	Bacterial Biotransformation (Acyltransferase)	Bacterial Biotransformation (Lipoprotein)	Bacterial Biotransformation [3]
C[C@@H]1CC[C@H]2[C@@H](C)C(=O)O[C@@H]3O[C@@]4(C)CC[C@@H]1[C@]32OO4 [ARTEMISININ]	Compound NOT metabolized	Compound NOT metabolized	Compound NOT metabolized	Compound NOT metabolized	Compound NOT metabolized	Compound NOT metabolized	Compound NOT metabolized	Compound NOT metabolized
CC(=O)Oc1ccc(C(c2ccc(OC(C)=O)cc2)c2ccccn2)cc1 [BISACODYL]	Compound metabolized	Compound NOT metabolized	Compound metabolized	Compound NOT metabolized	Compound metabolized	Compound NOT metabolized	Compound NOT metabolized	Compound NOT metabolized
C#C[C@]1(O)CC[C@H]2[C@@H]3CCC4=Cc5oncc5C[C@]4(C)[C@H]3CC[C@@]21C [DANAZOL]	Compound NOT metabolized	Compound NOT metabolized	Compound NOT metabolized	Compound NOT metabolized	Compound metabolized	Compound NOT metabolized	Compound NOT metabolized	Compound NOT metabolized
CC(=O)OCC(=O)[C@@]12N=C(C)O[C@@H]1C[C@H]1[C@@H]3CCC4=CC(=O)C=C[C@]4(C)[C@H]3[C@@H](O)C[C@@]12C [DEFLAZACORT]		Compound NOT metabolized	Compound NOT metabolized	Compound NOT metabolized	Compound metabolized	Compound NOT metabolized	Compound NOT metabolized	Compound NOT metabolized
COc1ccnc(C[S+]([O-])c2nc3ccc(OC(F)F)cc3[nH]2)c1OC (centres undefined) [PANTOPRAZOLE]	Compound NOT metabolized	Compound NOT metabolized	Compound NOT metabolized	Compound NOT metabolized	Compound NOT metabolized	Compound NOT metabolized	Compound NOT metabolized	Compound NOT metabolized
Nc1ccc(/N=N/c2ccccc2)c(N)n1 [PHENAZOPYRIDINE]	Compound NOT metabolized	Compound NOT metabolized	Compound NOT metabolized	Compound NOT metabolized	Compound NOT metabolized	Compound NOT metabolized	Compound NOT metabolized	Compound NOT metabolized
CC(=O)SCC(Cc1ccccc1)C(=O)NCC(=O)OCc1ccccc1 (centres undefined) [RACECADOTRIL]	Compound metabolized	Compound NOT metabolized	Compound metabolized	Compound NOT metabolized	Compound metabolized	Compound NOT metabolized	Compound metabolized	Compound NOT metabolized
CC(=O)OCC(=O)NCCCOc1cccc(CN2CCCCC2)c1 [ROXATIDINE ACETATE]	Compound NOT metabolized	Compound NOT metabolized	Compound metabolized	Compound metabolized	Compound metabolized	Compound NOT metabolized	Compound NOT metabolized	Compound NOT metabolized
